From ChEMBL document CHEMBL5154741, “Antibacterial alkylguanidino ureas: Molecular simplification approach, searching for membrane-based MoA” (Eur J Med Chem, 2022)
≈ marks a conversion by molar mass, not a printed value. Calls of active or inactive are those of the source. The rule behind the calls is not given here.

Assays:
[1] = test system: Klebsiella pneumoniae; test: Antibacterial activity against pan drug-resistant Klebsiella pneumoniae S1-081Rb assessed as bacterial growth inhibition incubated for 18 hrs by CLSI based micro-dilution broth method; format: functional
[2] = test system: Cell membrane; test: Disruption of membrane integrity in Enterococcus faecalis ATCC 19433 assessed as increase in PI positive cells at 16 ug/ml measured after 1 hr by SYTO9/PI staining based confocal laser scanning microscope analysis; format: subcellular; conditions: dose 16.0 µg/ml
[3] = test system: Streptococcus pyogenes; test: Antibacterial activity against Streptococcus pyogenes ATCC 12344 assessed as bacterial growth inhibition incubated for 18 hrs by micro-dilution broth method; format: functional
[4] = test system: Cell membrane; test: Disruption of membrane integrity in Staphylococcus aureus ATCC 25923 assessed as increase in PI positive cells at 16 ug/ml measured after 1 hr by SYTO9/PI staining based confocal laser scanning microscope analysis; format: subcellular; conditions: dose 16.0 µg/ml
[5] = test system: Lipid bilayer; test: Binding affinity to bacterial membrane mimic POPG large unilamellar vesicle assessed as hyperchromic shift at 125 uM measured after 1 hr by UV-Vis spectrophotometric analysis
[6] = test system: Cell membrane; test: Disruption of membrane integrity in Staphylococcus aureus ATCC 25923 assessed as increase in PI uptake at 16 ug/ml measured every 15 mins for 6 hrs by SYTO9/PI staining based fluorometric analysis; format: subcellular; conditions: dose 16.0 µg/ml
[7] = test system: Escherichia coli; test: Antibacterial activity against Escherichia coli CCUG assessed as bacterial growth inhibition incubated for 18 hrs by micro-dilution broth method; format: functional
[8] = test system: Cell membrane; test: Disruption of membrane integrity in Escherichia coli MG1655 assessed as increase in PI uptake at 16 ug/ml measured every 15 mins for 6 hrs by SYTO9/PI staining based fluorometric analysis; conditions: dose 16.0 µg/ml
[9] = test system: Cell membrane; test: Disruption of membrane integrity in Bacillus subtilis ATCC 6633 assessed as increase in PI positive cells at 16 ug/ml measured after 1 hr by SYTO9/PI staining based confocal laser scanning microscope analysis; format: subcellular; conditions: dose 16.0 µg/ml
[10] = Hemolytic activity against human RBC at 8 ug/ml incubated for 30 mins (reference value: 0%); format: toxicity, cell-based, Erythrocyte; conditions: human red blood cells (erythrocytes), at 8 µg/mL, read-out: Activity

## N=C(NCCCCCCCCNC(N)=O)NCC1CC1.O=C(O)C(F)(F)F
[1]
  MBC: 4 µg/mL
  MIC: 4 µg/mL
[2]
  Activity: Active
[3]
  MIC: 0.5 µg/mL
[4]
  Activity: Active
[5]
  Activity: Active
[6]
  Activity: Active
[7]
  MIC: 2 µg/mL
[8]
  Activity: Active
[9]
  Activity: Active
[10]
  hemolysis at 0.5 h, 8 ug/ml: 0%

## CCCCCCCCN(CCCCCCCCNC(=N)NCC1CC1)C(=O)N(CCCCCCNC(=N)NCC1CC1)CCCCCCNC(=N)NCC1CC1
[1]
  MBC: 8 µg/mL (≈ 10.2 µM)
  MIC: 8 µg/mL (≈ 10.2 µM)
[2]
  Activity: Active
[3]
  MIC: 1 µg/mL (≈ 1.27 µM)
[4]
  Activity: Active
[5]
  Activity: Active
[6]
  Activity: Active
[7]
  MIC: 4 µg/mL (≈ 5.09 µM)
[8]
  Activity: Active
[9]
  Activity: Active
[10]
  hemolysis at 0.5 h, 8 ug/ml: 1.2%

## N=C(N)NCCCCCCCCN(CCCCCCCCNC(=N)NCC1CC1)C(=O)N(CCCCCCCCNC(=N)NCC1CC1)CCCCCCCCNC(=N)NCC1CC1.O=C(O)C(F)(F)F
[1]
  MBC: 2 µg/mL
  MIC: 2 µg/mL
[2]
  Activity: Active
[3]
  MIC: 0.25 µg/mL
[4]
  Activity: Active
[5]
  Activity: Active
[6]
  Activity: Active
[7]
  MIC: 0.5 µg/mL
[8]
  Activity: Active
[9]
  Activity: Active
[10]
  hemolysis at 0.5 h, 8 ug/ml: 0%
